According to patent US20020137929A1, “1 - (3-heterocyclylphenyl) isothiourea, -isourea, -guanidine and -amidine herbicidal agents” (Intellectual Property Department, BASF Aktiengesellschaft, priority 1998, published 2002):

Key:
[1] = system: TRZAWR (Wheat, Winter, cv Riband); assay: Preemergence herbicidal evaluation; format: in vivo, Triticum aestivum; details: rated 4-5 weeks after treatment
How it was run: (§1)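 Scores use a 0–9 visual scale covering stand, vigor, malformation, size and chlorosis relative to controls, rated four to five weeks after treatment. Before emergence, soil-planted seeds were sprayed with compound in aqueous acetone at roughly 0.0156–0.500 kg/ha and held in the greenhouse.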

[2] = system: ZEAMX (Corn, Field); assay: Preemergence herbicidal evaluation; format: in vivo, Zea mays; details: rated 4-5 weeks after treatment
How it was run: as §1

[3] = system: SAGPY (Arrowhead (Pygmaea)); assay: Preemergence weed control under flooded paddy conditions; format: in vivo, Sagittaria pygmaea; details: rated 3-4 weeks after treatment
How it was run: (§2)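 Greenhouse paddy assay. Acetone/water (50/50 v/v) solutions dosed into flood water, equivalent to about 0.0313 to 0.500 kg/ha active ingredient, over seeds planted 0.5 cm deep in silt loam. Score: 0-9 visual, based on stand, vigor, malformation, size and chlorosis, 3 to 4 weeks after treatment.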

[4] = system: CHEAL (Lambsquarters, Common); assay: Postemergence herbicidal evaluation; format: in vivo, Chenopodium album; details: postemergence
How it was run: (§3)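 Young plants, roughly two weeks from seeding, receive the active ingredient as a sprayed dispersion (acetone/water 50/50, 0.5% TWEEN 20) at 40 psi. Doses span about 0.0156 to 0.500 kg/ha. A visual score from 0 to 9 compares treated with control plants four to five weeks on.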

[5] = system: ECHCG (Barnyardgrass); assay: Postemergence herbicidal evaluation; format: in vivo, Echinochloa crus-galli; details: postemergence
How it was run: as §3

[6] = system: GALAP (Galium); assay: Preemergence herbicidal evaluation; format: in vivo, Galium aparine; details: rated 4-5 weeks after treatment
How it was run: as §1

[7] = system: CASOB (Sicklepod); assay: Postemergence herbicidal evaluation; format: in vivo, Cassia obtusifolia; details: postemergence
How it was run: as §3

[8] = system: ORYSAT (Rice, Tebonnet); assay: Postemergence herbicidal evaluation; format: in vivo, Oryza sativa, (L.) Tebonnet; details: postemergence
How it was run: as §3

[9] = system: ORYSAT (Rice, Tebonnet); assay: Preemergence herbicidal evaluation; format: in vivo, Oryza sativa, (L.) Tebonnet; details: rated 4-5 weeks after treatment
How it was run: as §1

[10] = system: MOOVA (Monochoria); assay: Preemergence weed control under flooded paddy conditions; format: in vivo, Monochoria vaginalis; details: rated 3-4 weeks after treatment
How it was run: as §2

[11] = system: CYPIR (Rice Flatsedge); assay: as above; format: in vivo, Cyperus iria; details: rated 3-4 weeks after treatment
How it was run: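 Visual injury scored 0-9 against control three to four weeks post-treatment, greenhouse-grown. Application: acetone/water (50/50) solutions dosed directly into flood water (1.5-3 cm over silt loam, planted top 0.5 cm), roughly 0.0313 to 0.500 kg/ha active ingredient.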

[12] = system: GLXMAW (Soybean, Williams); assay: Preemergence herbicidal evaluation; format: in vivo, Glycine max, (L.) Merr. cv Williams; details: rated 4-5 weeks after treatment
How it was run: as §1

[13] = system: SETVI (Foxtail, Green); assay: Preemergence herbicidal evaluation; format: in vivo, Setaria viridis; details: rated 4-5 weeks after treatment
How it was run: as §1

CCOC(=O)CN1C(=O)C(OC)SC1=Nc1cc(-n2c(=O)cc(C(F)(F)F)n(C)c2=O)c(F)cc1Cl (stereo not shown) [Compound 160, Ethyl 2-{{2-chloro-5-[3,6-dihydro-3-methyl-2,6-dioxo-4-(trifluoromethyl)-1(2H)-pyrimidinyl]-4-fluorophenyl}imino}-5-methoxy-4-oxo-3-thiazolidineacetate]
7.0: Preemergence herbicidal rating TRZAWR ([1]; 0.5000 kg/ha) | Herbicidal rating ECHCG ([5]; rate 0.1250 kg/ha) | Preemergence herbicidal rating GALAP ([6]; 0.2500 kg/ha) | Preemergence herbicidal rating GALAP ([6]; 0.5000 kg/ha) | Preemergence herbicidal rating ORYSAT ([9]; 0.2500 kg/ha) | herbicidal effect rating, MOOVA ([10]; 0.2500 kg/ha) | Preemergence herbicidal rating SETVI ([13]; 0.0625 kg/ha) | Preemergence herbicidal rating SETVI ([13]; 0.1250 kg/ha) | Preemergence herbicidal rating SETVI ([13]; 0.2500 kg/ha)
3.5: Herbicidal rating ORYSAT ([8]; rate 0.0313 kg/ha)
1.0: Preemergence herbicidal rating TRZAWR ([1]; 0.0625 kg/ha) | Preemergence herbicidal rating TRZAWR ([1]; 0.1250 kg/ha) | Preemergence herbicidal rating ZEAMX ([2]; 0.0625 kg/ha) | Herbicidal rating CASOB ([7]; rate 0.0625 kg/ha) | Preemergence herbicidal rating ORYSAT ([9]; 0.0625 kg/ha) | Preemergence herbicidal rating ORYSAT ([9]; 0.1250 kg/ha) | Preemergence herbicidal rating GLXMAW ([12]; 0.0156 kg/ha) | Preemergence herbicidal rating GLXMAW ([12]; 0.0313 kg/ha) | Preemergence herbicidal rating GLXMAW ([12]; 0.0625 kg/ha) | Preemergence herbicidal rating SETVI ([13]; 0.0313 kg/ha)
0.0: Preemergence herbicidal rating TRZAWR ([1]; 0.0156 kg/ha) | Preemergence herbicidal rating TRZAWR ([1]; 0.0313 kg/ha) | Preemergence herbicidal rating ZEAMX ([2]; 0.0156 kg/ha) | Preemergence herbicidal rating ZEAMX ([2]; 0.0313 kg/ha) | herbicidal effect rating, SAGPY ([3]; 0.0313 kg/ha) | Preemergence herbicidal rating GALAP ([6]; 0.0156 kg/ha) | Preemergence herbicidal rating GALAP ([6]; 0.0313 kg/ha) | Preemergence herbicidal rating GALAP ([6]; 0.0625 kg/ha) | Preemergence herbicidal rating GALAP ([6]; 0.1250 kg/ha) | Herbicidal rating CASOB ([7]; rate 0.0156 kg/ha) | Herbicidal rating CASOB ([7]; rate 0.0313 kg/ha) | Preemergence herbicidal rating ORYSAT ([9]; 0.0156 kg/ha) | Preemergence herbicidal rating ORYSAT ([9]; 0.0313 kg/ha) | herbicidal effect rating, CYPIR ([11]; 0.0313 kg/ha) | Preemergence herbicidal rating SETVI ([13]; 0.0156 kg/ha)
4.0: Preemergence herbicidal rating TRZAWR ([1]; 0.2500 kg/ha) | Herbicidal rating ECHCG ([5]; rate 0.0625 kg/ha) | Herbicidal rating CASOB ([7]; rate 0.1250 kg/ha)
4.5: Herbicidal rating ORYSAT ([8]; rate 0.0625 kg/ha) | Herbicidal rating ORYSAT ([8]; rate 0.1250 kg/ha)
2.0: Preemergence herbicidal rating ZEAMX ([2]; 0.1250 kg/ha) | herbicidal effect rating, SAGPY ([3]; 0.0625 kg/ha) | Herbicidal rating CHEAL ([4]; rate 0.0156 kg/ha) | Herbicidal rating ORYSAT ([8]; rate 0.0156 kg/ha) | Preemergence herbicidal rating GLXMAW ([12]; 0.1250 kg/ha)
5.0: Preemergence herbicidal rating ZEAMX ([2]; 0.2500 kg/ha) | herbicidal effect rating, SAGPY ([3]; 0.1250 kg/ha) | Herbicidal rating ECHCG ([5]; rate 0.0313 kg/ha) | herbicidal effect rating, MOOVA ([10]; 0.0313 kg/ha)
9.0: Herbicidal rating CHEAL ([4]; rate 0.0625 kg/ha) | Herbicidal rating CHEAL ([4]; rate 0.1250 kg/ha) | herbicidal effect rating, CYPIR ([11]; 0.2500 kg/ha) | Preemergence herbicidal rating GLXMAW ([12]; 0.2500 kg/ha) | Preemergence herbicidal rating GLXMAW ([12]; 0.5000 kg/ha) | Preemergence herbicidal rating SETVI ([13]; 0.5000 kg/ha)
3.0: Herbicidal rating ECHCG ([5]; rate 0.0156 kg/ha) | herbicidal effect rating, CYPIR ([11]; 0.0625 kg/ha)
6.0: Herbicidal rating CHEAL ([4]; rate 0.0313 kg/ha) | herbicidal effect rating, MOOVA ([10]; 0.0625 kg/ha) | herbicidal effect rating, MOOVA ([10]; 0.1250 kg/ha) | herbicidal effect rating, CYPIR ([11]; 0.1250 kg/ha)
8.0: Preemergence herbicidal rating ZEAMX ([2]; 0.5000 kg/ha) | herbicidal effect rating, SAGPY ([3]; 0.2500 kg/ha) | Preemergence herbicidal rating ORYSAT ([9]; 0.5000 kg/ha)
